Assay results as given in PMC10913730, “Antimicrobial activity of a natural compound and analogs against multi-drug-resistant Gram-positive pathogens” (Microbiology Spectrum, 2024).
Read-outs that look alike come from different tables or passages of the source.

What was measured:
[1] = pH and Ka of 10-g/L aqueous solutions (pH meter); assay type: physicochemical; settings: 10-g/L solution in distilled, deionized water
MRSA isolates = assay: MIC/MBC, CLSI broth microdilution, MRSA isolates; assay type: cell-based, Staphylococcus aureus
[2] = test system: human dermal fibroblast (HDF) cells; assay: alamarBlue cell viability assay, HDF; settings: HDFs, 24-hour incubation, non-linear regression
[3] = test system: human bronchial epithelial (16HBE) cells; assay: alamarBlue cell viability assay, 16HBE; settings: 24-hour incubation, non-linear regression
[4] = test system: erythrocytes (sheep blood); assay: Hemolytic activity against sheep erythrocytes
[5] = Aqueous solubility of compounds reconstituted at 10 mg/mL in water; settings: 10 mg/mL in distilled deionized water
[6] = Staphylococcus aureus, MRSA, pH 5.5, MRSA 0606, pH 5.5
[7] = Staphylococcus aureus, MRSA, pH 5.5, MRSA 0608, pH 5.5
[8] = Staphylococcus aureus, MRSA, pH 5.5, MRSA 0634, pH 5.5
[9] = Staphylococcus aureus, MRSA, pH 5.5, MRSA 0641, pH 5.5
[10] = Staphylococcus aureus, MRSA, pH 5.5, MRSA 0646, pH 5.5
[11] = Staphylococcus aureus, MRSA, pH 5.5, TCH 1516, pH 5.5
[12] = Staphylococcus aureus, MRSA, pH 6.5, MRSA 0606, pH 6.5
[13] = Staphylococcus aureus, MRSA, pH 6.5, MRSA 0608, pH 6.5
[14] = Staphylococcus aureus, MRSA, pH 6.5, MRSA 0634, pH 6.5
[15] = Staphylococcus aureus, MRSA, pH 6.5, MRSA 0641, pH 6.5
[16] = Staphylococcus aureus, MRSA, pH 6.5, MRSA 0646, pH 6.5
[17] = Staphylococcus aureus, MRSA, pH 6.5, TCH 1516, pH 6.5
[18] = Staphylococcus aureus, MRSA, pH 7.4, MRSA 0606, pH 7.4
[19] = Staphylococcus aureus, MRSA, pH 7.4, MRSA 0608, pH 7.4
[20] = Staphylococcus aureus, MRSA, pH 7.4, MRSA 0634, pH 7.4
[21] = Staphylococcus aureus, MRSA, pH 7.4, MRSA 0641, pH 7.4
[22] = Staphylococcus aureus, MRSA, pH 7.4, MRSA 0646, pH 7.4
[23] = Staphylococcus aureus, MRSA, pH 7.4, TCH 1516, pH 7.4

[Na+].[Na+].[O-]c1c(Cl)cc(Cl)cc1-c1cc(Cl)cc(Cl)c1[O-] [C59Na]
acid dissociation constant (Ka) [1]: 1.54 × 10^−16 | pH of solution ([1]; room temperature): 8.69 | MIC90 (MRSA isolates; Staphylococcus aureus, MRSA, 39 evaluated MRSA isolates, CLSI broth microdilution): 4 µg/mL | MBC (MRSA isolates; [6]): 0.25 µg/mL | MIC (MRSA isolates; [6]): 0.25 µg/mL | MBC (MRSA isolates; [7]): 0.25 µg/mL | MIC (MRSA isolates; [7]): 0.25 µg/mL | MBC (MRSA isolates; [8]): 0.25 µg/mL | MIC (MRSA isolates; [8]): 0.25 µg/mL | MBC (MRSA isolates; [9]): 0.25 µg/mL | MIC (MRSA isolates; [9]): 0.25 µg/mL | MBC (MRSA isolates; [10]): 0.25 µg/mL | MIC (MRSA isolates; [10]): 0.25 µg/mL | MBC (MRSA isolates; [11]): 0.25 µg/mL | MIC (MRSA isolates; [11]): 0.25 µg/mL | MBC (MRSA isolates; Staphylococcus aureus, MRSA, pH 5.5, read-out: Average MBC, average of six MRSA isolates, pH 5.5): 0.25 µg/mL | MIC (MRSA isolates; Staphylococcus aureus, MRSA, pH 5.5, read-out: Average MIC, average of six MRSA isolates, pH 5.5): 0.25 µg/mL | MBC (MRSA isolates; [12]): 1 µg/mL | MIC (MRSA isolates; [12]): 0.5 µg/mL | MBC (MRSA isolates; [13]): 1 µg/mL | MIC (MRSA isolates; [13]): 1 µg/mL | MBC (MRSA isolates; [14]): 1 µg/mL | MIC (MRSA isolates; [14]): 1 µg/mL | MBC (MRSA isolates; [15]): 1 µg/mL | MIC (MRSA isolates; [15]): 0.5 µg/mL | MBC (MRSA isolates; [16]): 1 µg/mL | MIC (MRSA isolates; [16]): 0.5 µg/mL | MBC (MRSA isolates; [17]): 2 µg/mL | MIC (MRSA isolates; [17]): 1 µg/mL | MBC (MRSA isolates; Staphylococcus aureus, MRSA, pH 6.5, read-out: Average MBC, average of six MRSA isolates, pH 6.5): 1.2 µg/mL | MIC (MRSA isolates; Staphylococcus aureus, MRSA, pH 6.5, read-out: Average MIC, average of six MRSA isolates, pH 6.5): 0.75 µg/mL | MBC (MRSA isolates; [18]): 2 µg/mL | MIC (MRSA isolates; [18]): 2 µg/mL | MBC (MRSA isolates; [19]): 4 µg/mL | MIC (MRSA isolates; [19]): 2 µg/mL | MBC (MRSA isolates; [20]): 2 µg/mL | MIC (MRSA isolates; [20]): 2 µg/mL | MBC (MRSA isolates; [21]): 4 µg/mL | MIC (MRSA isolates; [21]): 2 µg/mL | MBC (MRSA isolates; [22]): 4 µg/mL | MIC (MRSA isolates; [22]): 1 µg/mL | MBC (MRSA isolates; [23]): 2 µg/mL | MIC (MRSA isolates; [23]): 2 µg/mL | MBC (MRSA isolates; Staphylococcus aureus, MRSA, pH 7.4, read-out: Average MBC, average of six MRSA isolates, pH 7.4): 3 µg/mL | MIC (MRSA isolates; Staphylococcus aureus, MRSA, pH 7.4, read-out: Average MIC, average of six MRSA isolates, pH 7.4): 1.8 µg/mL | MBC (MRSA isolates; Staphylococcus aureus, MRSA, read-out: MBC90, 39 evaluated MRSA isolates, CLSI broth microdilution): 12 µg/mL | change of MIC and MBC with the reduction in pH (MRSA isolates; six MRSA isolates, pH lowered to 5.5): decreased | LD50 [2]: 57.5 µg/mL | LD50 [3]: 30.0 µg/mL | concentrations at which erythrocytes were not lysed ([4]; 1% sheep blood, 1-hour incubation): up to 24 µg/mL | LD50 relative to MIC90 ([4]; higher than MIC90, stated in the hemolysis discussion, cell type not named): 10 fold | aqueous solubility [5]: moderate aqueous solubility
